Measurements taken from patent US20160022761A1, “DEREPRESSION OF IMMUNITY IN ONCOLOGICAL AND VIROLOGICAL CONDITIONS BY HIGH MOBILITY GROUP BOX 1 DERIVED PEPTIDES” (priority 2014, published 2016).

System: human Treg cells
Experiment: Inhibitory activity of human Treg cells in in vitro assays of T cell stimulation (anti-CD3 or MLR, tritiated thymidine proliferation)
Type: cell-based
Conditions: all treatment groups (0.01 ug/ml, 0.1 ug/ml and 1 ug/ml), 72 hours culture; compared to controls that received scrambled peptide (FFSAFLSEC)
Description: Isolation of human CD4+, CD4+CD25+, and CD4+CD25− T cells was performed from PBMC by using human Treg isolation kits (Miltenyi Biotec), respectively, according to the manufacturer's instructions. The purity of the resulting T cell populations was confirmed to be >95% by flow cytometry.
Inhibitory activity of human Treg cells was measured in in vitro assays of T cell stimulation. CD25-depleted spleen cells (10^5 cells/well) from human PBMC (105) were stimulated in vitro with the following: anti-human CD3 Ab (BD Pharmingen) or human PBMC (105) from a different donor (to induce a MLR). Cultures were maintained for 72 hours in the presence of SAFFLFCSE peptide at concentrations of 0.01 ug/ml, 0.1 ug/ml and 1 ug/ml. Tritiated thymidine was added at a concentration of 1 microcurie per well for the last 12 hours of culture. Scintillation counting was used to assess proliferation.

SAFFLFCSE
inhibition of T regulatory cell suppressive activity: > 80%
